Data reported in US20240173439A1, “FLUORINE-CONTAINING COMPOUND AND CONTRAST MEDIUM” (TDK CORPORATION, priority 2021, published 2024).

Assay: Measurement of 19F spin-lattice relaxation time (T1) by inversion recovery, 500 MHz NMR
Type: physicochemical
Settings: 50 mM in CDCl3, 36° C.
Protocol: (Measurement of ^19F Spin-Lattice Relaxation Time (T1))
A compound was dissolved in a deuterated chloroform solution at a concentration of 50 mM, and the longitudinal relaxation time (T1) of ^19F nucleus was measured through an inversion recovery method using a 500 MHz NMR device under the conditions shown below.
Measurement Conditions • NMR device: JNM-ECA500 (manufactured by JEOL) • Measurement temperature: 36° C. • Pulse sequence: double_pulse • relaxation_delay: 10[s] • tau_interval: 4, 3, 2, 1, 0.8, 0.6, 0.4, 0.2, 0.1[s], 80, 60, 40, 20, 10, 8, 6, 4, 2[ms] • Number of times of integration: 16 times

SMILES | T1 (19F spin-lattice relaxation time)
CC1(C)CC(OC(C(F)(F)F)(C(F)(F)F)C(F)(F)F)CC(C)(C)N1[O] [Compound 24, 4-((1,1,1,3,3,3-hexafluoro-2-(trifluoromethyl)propane-2-yl)oxy)-2,2,6,6-tetramethylpiperidine-1-oxyl] | 0.092 s
CC1(C)CC(OC(C(F)(F)F)(C(F)(F)F)C(F)(F)F)CC(C)(C)N1[O] [Compound 15, 4-((1,1,1,3,3,3-hexafluoro-2-(trifluoromethyl)propane-2-yl)oxy)-2,2,6,6-tetramethylpiper idine-1-oxyl] | 0.094 s
CC1(C)CC(Oc2ccccc2C(F)(F)F)CC(C)(C)N1[O] [Compound 18] | 0.098 s
CC1(C)CC(OCCC(F)(F)F)CC(C)(C)N1[O] [Compound 13] | 0.105 s
CC1(C)CC(OCC(F)(F)F)CC(C)(C)N1[O] [Compound 17] | 0.101 s
CC1(C)CC(Oc2cc(C(F)(F)F)cc(C(F)(F)F)c2)CC(C)(C)N1[O] [Compound 20] | 0.108 s
CC1(C)CC(OCCCCOC(C(F)(F)F)C(F)(F)F)CC(C)(C)N1[O] [Compound 26, 4-(4-((1,1,1,3,3,3-hexafluoropropane-2-yl)oxy)butoxy)-2,2,6,6-tetramethylpiperidine-1-o xyl] | 0.130 s
CC1(C)CC(OCCCCCCCCCCCCCCCCOC(C(F)(F)F)(C(F)(F)F)C(F)(F)F)CC(C)(C)N1[O] [Compound 29] | 0.284 s
CC1(C)CC(OCCOC(C(F)(F)F)(C(F)(F)F)C(F)(F)F)CC(C)(C)N1[O] [Compound 12] | 0.121 s
CCC1(CC)CC(OCCOC(C(F)(F)F)(C(F)(F)F)C(F)(F)F)CC(CC)(CC)N1[O] [Compound 23] | 0.118 s
CC1(C)CC(OCCCC(F)(F)F)CC(C)(C)N1[O] [Compound 14] | 0.117 s
CCC1(CC)CC(OCCCCOC(C(F)(F)F)(C(F)(F)F)C(F)(F)F)CC(CC)(CC)N1[O] [Compound 22, 4-(4-((1,1,1,3,3,3-hexafluoro-2-(trifluoromethyl)propane-2-yl)oxy)butoxy)-2,2,6,6-tetraet hylpiperidine-1-oxyl] | 0.130 s
CC1(C)CC(OCCCCCCCCCCCCOC(C(F)(F)F)(C(F)(F)F)C(F)(F)F)CC(C)(C)N1[O] [Compound 28] | 0.214 s
CC1(C)CC(OC(C(F)(F)F)C(F)(F)F)CC(C)(C)N1[O] [Compound 16] | 0.096 s
CC1(C)CC(OCCCCCCCCOC(C(F)(F)F)(C(F)(F)F)C(F)(F)F)CC(C)(C)N1[O] [Compound 27, 4-((8-((1,1,1,3,3,3-hexafluoro-2-(trifluoromethyl)propane-2-yl)oxy)octyl)oxy)-2,2,6,6-tet ramethylpiperidine-1-oxyl] | 0.130 s
CC1(C)CC(Oc2ccc(C(F)(F)F)cc2)CC(C)(C)N1[O] [Compound 21] | 0.123 s
CC1(C)CC(OCCCCOC(C(F)(F)F)(C(F)(F)F)C(F)(F)F)CC(C)(C)N1[O] [Compound 11, 4-(4-((1,1,1,3,3,3-hexafluoro-2-(trifluoromethyl)propane-2-yl)oxy)butoxy)-2,2,6,6-tetra methylpiperidine-1-oxyl] | 0.134 s
CCC1(CC)CC(OCCCCOC(C(F)(F)F)(C(F)(F)F)C(F)(F)F)CC(C)(C)N1[O] (stereo not shown) [Compound 25, 4-(4-((1,1,1,3,3,3-hexafluoro-2-(trifluoromethyl)propane-2-yl)oxy)butoxy)-2,2-diethyl-6,6-dimethylpiperidine-1-oxyl] | 0.127 s
CC1(C)CC(Oc2cccc(C(F)(F)F)c2)CC(C)(C)N1[O] [Compound 19] | 0.110 s
